The record followed here is ChEMBL document CHEMBL1671819, “Interactions of monoamine oxidases with the antiepileptic drug zonisamide: specificity of inhibition and structure of the human monoamine oxidase B complex” (J Med Chem, 2011).

Structures are written as SMILES.

Data set [1] deals with T1, Amine oxidase [flavin-containing] A (Homo sapiens, UniProt P21397).
T1 sequence (P21397 whole entry): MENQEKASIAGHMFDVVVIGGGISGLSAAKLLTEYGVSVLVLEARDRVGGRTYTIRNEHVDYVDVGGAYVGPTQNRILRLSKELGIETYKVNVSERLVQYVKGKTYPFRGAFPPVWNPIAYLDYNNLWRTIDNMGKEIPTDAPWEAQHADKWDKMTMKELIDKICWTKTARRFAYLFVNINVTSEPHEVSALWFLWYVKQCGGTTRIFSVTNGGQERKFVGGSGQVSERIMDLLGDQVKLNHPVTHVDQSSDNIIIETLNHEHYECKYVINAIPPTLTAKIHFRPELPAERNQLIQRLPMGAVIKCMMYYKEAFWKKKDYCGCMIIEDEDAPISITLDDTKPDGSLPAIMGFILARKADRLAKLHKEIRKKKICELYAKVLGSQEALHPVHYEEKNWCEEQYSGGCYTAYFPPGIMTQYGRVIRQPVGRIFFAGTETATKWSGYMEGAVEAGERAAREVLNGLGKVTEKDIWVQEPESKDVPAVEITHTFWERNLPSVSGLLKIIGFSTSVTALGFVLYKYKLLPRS
As to the kind of experiment: Competitive inhibition of human MAOA by spectrophotometry.

Data set [2] concerns the target T2, Amine oxidase [flavin-containing] B (Homo sapiens, UniProt P27338).
T2 sequence (P27338 whole entry): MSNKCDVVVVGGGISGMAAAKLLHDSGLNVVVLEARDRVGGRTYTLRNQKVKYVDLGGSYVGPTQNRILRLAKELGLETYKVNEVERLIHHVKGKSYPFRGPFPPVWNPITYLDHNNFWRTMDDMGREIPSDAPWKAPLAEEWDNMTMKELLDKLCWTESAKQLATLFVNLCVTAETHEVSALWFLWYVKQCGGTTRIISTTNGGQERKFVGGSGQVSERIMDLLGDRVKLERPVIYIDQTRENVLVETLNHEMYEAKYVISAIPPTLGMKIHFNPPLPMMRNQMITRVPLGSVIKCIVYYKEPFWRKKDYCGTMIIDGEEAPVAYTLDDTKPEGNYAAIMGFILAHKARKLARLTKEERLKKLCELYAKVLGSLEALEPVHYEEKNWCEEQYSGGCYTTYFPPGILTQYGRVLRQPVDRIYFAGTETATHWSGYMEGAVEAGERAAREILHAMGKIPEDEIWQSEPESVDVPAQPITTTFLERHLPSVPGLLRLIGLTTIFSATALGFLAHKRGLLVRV
Put plainly: Competitive inhibition of human MAO B by spectrophotometry.

Data set [3] concerns the target T3, Amine oxidase [flavin-containing] A (Rattus norvegicus, UniProt P21396).
T3 sequence (P21396 whole entry): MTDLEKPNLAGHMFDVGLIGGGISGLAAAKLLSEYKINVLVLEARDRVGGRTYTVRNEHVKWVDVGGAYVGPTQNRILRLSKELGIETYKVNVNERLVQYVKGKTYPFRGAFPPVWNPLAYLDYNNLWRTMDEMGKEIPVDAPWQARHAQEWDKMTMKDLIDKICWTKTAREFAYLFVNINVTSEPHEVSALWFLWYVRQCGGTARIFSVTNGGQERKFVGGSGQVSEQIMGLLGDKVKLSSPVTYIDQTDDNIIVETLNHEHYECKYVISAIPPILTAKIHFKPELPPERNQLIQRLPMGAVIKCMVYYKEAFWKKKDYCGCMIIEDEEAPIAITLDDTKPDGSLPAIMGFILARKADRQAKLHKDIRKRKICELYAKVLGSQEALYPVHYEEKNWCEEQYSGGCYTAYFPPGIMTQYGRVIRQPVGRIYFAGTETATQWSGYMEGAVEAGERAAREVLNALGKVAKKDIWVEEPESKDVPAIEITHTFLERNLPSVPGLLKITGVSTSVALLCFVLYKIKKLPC
As to the kind of experiment: Competitive inhibition of rat MAOA by spectrophotometry.

Data set [4] deals with T4, Amine oxidase [flavin-containing] B (Rattus norvegicus, UniProt P19643).
T4 sequence (P19643 whole entry): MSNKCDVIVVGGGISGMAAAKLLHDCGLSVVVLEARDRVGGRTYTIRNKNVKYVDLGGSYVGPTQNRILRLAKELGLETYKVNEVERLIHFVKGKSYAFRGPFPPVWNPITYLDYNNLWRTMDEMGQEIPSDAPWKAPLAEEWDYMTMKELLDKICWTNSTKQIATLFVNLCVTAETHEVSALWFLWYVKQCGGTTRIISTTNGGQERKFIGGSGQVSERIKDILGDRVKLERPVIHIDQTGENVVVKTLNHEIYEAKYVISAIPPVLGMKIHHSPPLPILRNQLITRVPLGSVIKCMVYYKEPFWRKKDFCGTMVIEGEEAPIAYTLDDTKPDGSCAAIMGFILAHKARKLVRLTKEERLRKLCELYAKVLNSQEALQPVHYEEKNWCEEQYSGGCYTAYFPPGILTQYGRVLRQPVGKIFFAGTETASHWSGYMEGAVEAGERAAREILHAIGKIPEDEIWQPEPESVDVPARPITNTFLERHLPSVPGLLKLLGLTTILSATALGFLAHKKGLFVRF
As to the kind of experiment: Competitive inhibition of rat MAO B by spectrophotometry.

The test system of a further data set is Serum. As to the kind of experiment: Drug level in parkinson's disease patient serum at 25 mg/day. Format: ADME, cell-free. The conditions noted are these: human, read-out: Drug uptake.
Data set [5] has as its target T5, Amine oxidase [flavin-containing] (Danio rerio, UniProt Q6NSN2).
T5 sequence (Q6NSN2 whole entry): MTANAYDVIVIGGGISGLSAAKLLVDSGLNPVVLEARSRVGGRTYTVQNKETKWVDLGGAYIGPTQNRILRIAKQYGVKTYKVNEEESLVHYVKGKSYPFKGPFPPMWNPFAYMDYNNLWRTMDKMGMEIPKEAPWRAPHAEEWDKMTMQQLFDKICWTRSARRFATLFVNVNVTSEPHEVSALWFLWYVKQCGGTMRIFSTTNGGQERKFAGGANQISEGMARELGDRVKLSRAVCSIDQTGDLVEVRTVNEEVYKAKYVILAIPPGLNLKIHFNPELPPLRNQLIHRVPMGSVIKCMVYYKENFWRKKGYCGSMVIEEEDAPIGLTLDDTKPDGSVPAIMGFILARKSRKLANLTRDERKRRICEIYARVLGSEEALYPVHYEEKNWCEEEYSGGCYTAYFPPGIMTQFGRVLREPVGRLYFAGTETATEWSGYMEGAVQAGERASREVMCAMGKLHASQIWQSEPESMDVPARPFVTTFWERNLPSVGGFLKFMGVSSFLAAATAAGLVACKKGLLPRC
Put plainly: Competitive inhibition of zebrafish MAO by spectrophotometry.

Take `NS(=O)(=O)Cc1noc2ccccc12` [ZONISAMIDE]: the “inhibition (INH)” value in data set [1] and in data set [3] was “Not Active” throughout. For the same compound, the values for the Ki in data set [2], in data set [4] and in data set [5] were 3.1 µM, 2.9 µM and 30.8 µM, respectively. The concentration with Serum came out at 600 nM.

One may read the Ki as a measure of affinity in units of concentration, obtained from inhibition or displacement.
